The source of these data is paper PMC5848173, “PhcrTx2, a New Crab-Paralyzing Peptide Toxin from the Sea Anemone Phymanthus crucifer” (Toxins, 2018).

The subject of test [1] is glutamate-gated currents in snail neurons. Put plainly: Glutamate-gated currents in isolated snail neurons (whole-cell patch clamp). Particulars: glutamate 1 mM. It counts as cell-based, Helix aspersa. On the procedure: The effects of PhcrTx2 were studied in isolated mammalian and snail neurons using the whole cell patch-clamp technique. Animal care and procedures were in accordance with the National Institutes of Health Guide for the Care and Use of Laboratory Animals. All efforts were made to minimize animal suffering. The number of animals used for this work was kept to the minimum necessary for a meaningful interpretation of the data.
Experiments to study glutamate-activated currents were performed in isolated neurons of the land snail Helix aspersa. The subesophageal mass of the snail was dissected, and put into the Ringer solution for snails (Supplementary Table S4) containing trypsin (2 mg/mL for 30 min, at 37 °C). After enzymatic treatment, the preparation was washed with normal solution for snails, and the neurons were mechanically dissociated, plated on glass coverslips (Corning) pretreated with poly-D-lysine (Sigma-Aldrich), and placed onto 35-mm culture dishes (Corning). Neurons were maintained at room temperature (23–25 °C) for at least 30 min before using, in order to allow the isolated cells to adhere to the coverslips. The whole-cell recording was carried out using the same experimental conditions that were described in Section 5.2.2.
Glutamate currents were elicited by a fast glutamate application (about 40 ms) by shifting one of the three outlets of a fast change perfusion system (SF-77B, Warner Inst., Hamden, CT, USA) while keeping the cell at a holding potential (Vh) of −100 mV. The interval between glutamate applications was one minute, to guarantee that the current completely recovered from desensitization. The pH of glutamate solution was checked before each experiment to avoid the potential activation of proton-gated currents. At the beginning of this study, experiments were designed to compare the effect of the toxin using two application protocols.
The solutions used in the experiments are depicted in Supplementary Table S4. The concentration-response curves were fitted to the Hill equation following the procedure described in Section 5.2.2.

The conditions of test [2]: Anthopleura elegantissima toxins; ref [5],[38]; cited from earlier work. An excerpt:
(§1) The inhibition of PhcrTx2 on glutamate-gated currents in snail neurons, and also on voltage-activated K^+ currents in DRG neurons, seems to be of about similar potency and slightly different in efficacy. PhcrTx2 also acted on voltage-dependent Na^+-channels of DRG neurons but with lower efficacy, in comparison with its effect on K^+ channels. […] These facts resemble previous re ...

The subject of another test is ASIC3. Particulars: ref [38], cited from earlier work.
Text: as §1

For the next test, the system named is Kv3.4 channels. As to conditions: ref [38],[58]; cited from earlier work.
Text: as §1

Test [3] relates to insect and mammalian Nav channels. As to conditions: ref [38],[58]; cited from earlier work.
Text: as §1

Test [4] concerns heteromeric channels that contain the ASIC3 subunit. As to conditions: except the ASIC2a + 3 current; ref [38]; cited from earlier work.
Text: as §1

Another test has as its system crabs. Particulars: Antheopsis maculata toxin; ref [21]; cited from earlier work. The source says:
Many of these peptides have been classified as voltage-gated sodium channel toxins, whereas few other crab-paralyzing peptides act on different targets, such as voltage-gated potassium channels. On the other hand, other paralyzing toxins seem to belong to new classes of toxins. In this work, we found a diversity of paralyzing toxins from the sea anemone P. crucifer by using a crab toxicity assay for biological activity screening during the purification process. Sixteen chromatographic fractions sh ... || (+ 1 further places)

No end group written: not given here.

In the case of `N[C@@H](CCC(=O)O)C(=O)O` [glutamate], the “glutamate-evoked current at positive potential” value in test [1] (80 mV, n = 5) is given as 0.3 ± 0.1 nA. In addition, in test [1] (holding potential −100 mV, n = 5, average), the glutamate-evoked current result was “about 2.6 ± 1.4 nA”. The “reversal potential of glutamate-evoked current” value in test [1] (average, "close to") is given as about 0 mV.
For the compound “APETx1: toxin from Anthopleura elegantissima (UniProtKB P61541) (GTTCYCGKTIGIYWFGTKTCPSNRGYTGSCGYFLGICCYPVD; UniProt P61541 1-42, looked up)”, the target selectivity entry in test [2] is on record as “lack of target selectivity”.
As to “APETx2: toxin from Anthopleura elegantissima, ASIC3 blocker (UniProtKB P61542) (GTACSCGNSKGIYWFYRPSCPTDRGYTGSCRYFLGTCCTPAD; UniProt P61542 1-42, looked up)”, in test [2], the target selectivity entry is on record as “lack of target selectivity”. For the same compound, the IC50 – broadly, the concentration needed to halve the response being measured – in the test on ASIC3 (reversible blocker, read-out: IC50, peak component of the ASIC3 current) is 0.063 µM. Besides, the “effect on the sustained component of ASIC3 current” value in the test on ASIC3 (sustained component) is on record as “no effect”. Moreover, the “inhibition of Kv3.4 channels” value in the test with Kv3.4 channels is listed as “partially inhibits Kv3.4 channels”. In addition, in test [3], the “effect on Nav channels” value is “inhibiting the sodium conductance without affecting the inactivation and shifting activation to a depolarizing direction”. For the same compound, the “effect on heteromeric channels containing ASIC3” value in test [4] is on record as “affects heteromeric channels that contain the ASIC3 subunit, except the ASIC2a + 3 current”.
For the compound “Am II: crab-paralyzing toxin from Antheopsis maculata (UniProtKB P69930) (ALLSCRCEGKTEYGDKWLFHGGCPNNYGYNYKCFMKPGAVCCYPQN; ends and bridges not checked; cysteine pairing not given here; UniProt P69930 33-78, looked up)”, the crab-paralyzing activity result in the test on crabs was “crab-paralyzing toxin”.
